These compounds were tested against Epidermal growth factor receptor (Homo sapiens) (UniProt P00533) (assay: decrease of p-EGFR levels in colorectal cells – HCT116 cells, chemiluminescent western blot, powder samples, counter-screen for KLF5 inhibitor project, late-stage follow-up (AID 588650)). Settings: HCT116 phospho-EGFR western blot, 24 h; at 10 µM; active compounds read high.
Sequence of Epidermal growth factor receptor (Homo sapiens) (P00533 whole entry, looked up): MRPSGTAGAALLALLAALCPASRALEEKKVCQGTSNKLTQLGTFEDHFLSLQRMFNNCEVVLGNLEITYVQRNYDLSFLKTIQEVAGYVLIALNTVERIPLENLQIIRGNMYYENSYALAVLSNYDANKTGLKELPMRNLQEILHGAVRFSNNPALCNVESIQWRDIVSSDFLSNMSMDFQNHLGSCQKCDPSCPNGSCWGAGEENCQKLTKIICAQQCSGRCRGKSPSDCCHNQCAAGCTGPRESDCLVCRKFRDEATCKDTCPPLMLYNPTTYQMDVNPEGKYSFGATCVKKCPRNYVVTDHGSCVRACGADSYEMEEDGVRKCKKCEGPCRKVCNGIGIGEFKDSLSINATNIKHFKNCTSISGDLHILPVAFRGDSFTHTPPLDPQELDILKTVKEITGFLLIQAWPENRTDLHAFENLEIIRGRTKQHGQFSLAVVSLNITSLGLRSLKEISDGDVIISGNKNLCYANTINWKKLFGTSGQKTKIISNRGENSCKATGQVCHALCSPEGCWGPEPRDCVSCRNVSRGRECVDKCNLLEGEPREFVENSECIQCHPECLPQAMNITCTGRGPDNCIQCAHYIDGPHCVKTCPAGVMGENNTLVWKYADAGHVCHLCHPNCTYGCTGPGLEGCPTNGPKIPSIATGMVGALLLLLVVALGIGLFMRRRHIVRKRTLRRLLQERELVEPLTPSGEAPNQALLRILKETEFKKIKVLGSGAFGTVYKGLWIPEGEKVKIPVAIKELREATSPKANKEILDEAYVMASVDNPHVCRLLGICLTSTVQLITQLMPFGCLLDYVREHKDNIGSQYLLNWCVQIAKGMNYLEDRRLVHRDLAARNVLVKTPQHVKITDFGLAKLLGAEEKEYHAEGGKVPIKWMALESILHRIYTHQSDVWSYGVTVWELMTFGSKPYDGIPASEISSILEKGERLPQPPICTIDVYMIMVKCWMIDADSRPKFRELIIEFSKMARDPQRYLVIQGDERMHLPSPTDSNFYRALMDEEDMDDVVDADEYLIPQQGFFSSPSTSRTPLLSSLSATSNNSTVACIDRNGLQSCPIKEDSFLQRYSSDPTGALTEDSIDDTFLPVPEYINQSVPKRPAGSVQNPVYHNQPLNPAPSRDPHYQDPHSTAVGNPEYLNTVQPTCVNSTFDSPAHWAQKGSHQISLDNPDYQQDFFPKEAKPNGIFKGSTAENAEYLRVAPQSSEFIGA

For `CN(C(=O)CNC(=O)/C=C/c1cccc(Cl)c1)C1CCS(=O)(=O)CC1`, which inhibition is on record?
The inhibition was -254%.

`CN(C(=O)CNC(=O)/C=C/c1cccc(Cl)c1)C1CCS(=O)(=O)C1` (stereo not drawn) was tested. Which inhibition did it give?
Its inhibition is -53.2%.

`CN(C(=O)COC(=O)/C=C/c1cccc([N+](=O)[O-])c1)C1CCS(=O)(=O)C1` (stereo not drawn) was tested. Which inhibition did it give?
The inhibition was -64.9%.

From PubChem BioAssay AID588650 (The Scripps Research Institute Molecular Screening Center, 2011)
